In PubChem BioAssay (NCI):
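Briefly, cells in 96-well plates were exposed to five compound concentrations for 48 h, and endpoints were estimated by linear interpolation. TGI marks complete inhibition of growth.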

Columns and labels:
Assay in all cases: NCI tumour cell line growth inhibition, 48 h
[1] = test system: UACC-62 melanoma
[2] = test system: HT29 colon
[3] = test system: MALME-3M melanoma
[4] = test system: MDA-N
[5] = test system: CAKI-1 renal
[6] = test system: OVCAR-8 ovarian
[7] = test system: DU-145 prostate
[8] = test system: NCI-H23 lung
[9] = test system: SW-620 colon
[10] = test system: HCC-2998 colon
[11] = test system: SNB-19 CNS
[12] = test system: SF-539 CNS
[13] = test system: MDA-MB-231 breast
[14] = test system: KM12 colon
[15] = test system: OVCAR-4 ovarian
[16] = test system: RPMI-8226 leukemia
[17] = test system: COLO 205 colon
[18] = test system: SK-MEL-28 melanoma
[19] = test system: TK-10 renal
[20] = test system: EKVX NSCLC

Row | Structure (SMILES) | TGI [1] [µM] | TGI [2] [µM] | TGI [3] [µM] | TGI [4] [µM] | TGI [5] [µM] | TGI [6] [µM] | TGI [7] [µM] | TGI [8] [µM] | TGI [9] [µM] | TGI [10] [µM] | TGI [11] [µM] | TGI [12] [µM] | TGI [13] [µM] | TGI [14] [µM] | TGI [15] [µM] | TGI [16] [µM] | TGI [17] [µM] | TGI [18] [µM] | TGI [19] [µM] | TGI [20] [µM]
1 | CC(C)(CN1CCCCC1)C(/C=C/c1ccc(Cl)cc1)=N\NC(=O)N/N=C(/C=C/c1ccc(Cl)cc1)C(C)(C)CN1CCCCC1 | 12.1 | 12.2 | 22.9 | 10.7 | 7.3 | 23.1 | 18 | 10.3 | 7.67 | 16.3 | 16.3 | 18.9 | 7.21 | 16.9 | 15 | 54.8 | 11.7 | 25.3 | 22.5 | 18.8
2 | C[N+]12C=CC=C1C(N1CCCC1)c1scc(-c3ccc(Br)cc3)c12 (stereo not given) | 80.3 | > 100 | 25.4 | 98.2 | > 100 | > 100 | > 100 | 32.4 | > 100 | 39.9 | 39.2 | 21.9 | > 93.8 | 25.9 | > 100 | 28.9 | 39.8 | > 60.5 | > 100 | > 100
3 | N#C/C(N)=C(\C#N)NC=NCCO | > 100 | > 100 | > 100 | > 100 | > 100 | > 100 | > 100 | > 100 | > 100 | > 100 | > 100 | > 100 | > 100 | > 100 | > 100 | > 100 | > 100 | > 100 | > 100 | > 100
4 | Cc1[nH]c(=O)nc2sc(=NC3CCCCC3)n(C3CCCCC3)c(=O)c12 | > 100 | > 100 | > 100 | > 100 | > 100 | > 100 | > 100 | > 100 | > 100 | > 100 | > 100 | > 100 | > 100 | > 100 | > 100 | > 100 | > 100 | > 100 | > 100 | > 100
5 | CC1=C/C(=N\NC(N)=S)C(C(O)(C(F)(F)F)C(F)(F)F)C(C)(C)C1 (stereo not given) | > 10 | > 10 | > 10 | > 10 | > 10 | > 10 | > 10 | > 10 | > 10 | > 10 | > 10 | > 10 | > 10 | > 10 | > 10 | > 10 | > 10 | > 10 | > 10 | > 10
6 | O=[N+]([O-])c1ccc2nc(Nc3ccccc3)c(Nc3ccccc3)nc2c1 | 2.23 | 1.53 | 4.79 | 2.23 | 11.2 | 6.45 | 4.6 | 4.26 | 3.46 | 2.65 | 7.7 | 2.98 | 2.64 | 2.78 | 11.3 | > 100 | 2.97 | 8.4 | 6.84 | 6.22
7 | COc1ccc2oc3c(C)cc4c(OC)nnc(OC)c4c3c2c1 | > 100 | > 100 | > 100 | > 100 | > 100 | > 100 | > 100 | > 100 | > 100 | > 100 | > 100 | > 100 | > 100 | > 100 | > 100 | > 100 | > 100 | > 100 | 91.9 | > 100
8 | O=C1C(Br)=C(Br)C(=O)c2ccc(=O)ccc21 | 39.4 | > 75 | 37.4 | 44.8 | 64.2 | 50.8 | > 100 | 43.1 | 42.7 | > 100 | > 100 | 45 | 35.9 | > 100 | 32.7 | 43 | 26.4 | 52 | 37.2 | > 90.9
9 | COc1ccc(C(C)NNC(=O)c2ccncc2)cc1OC (stereo not given) | > 100 | > 100 | > 100 | > 100 | > 100 | > 100 | > 100 | > 100 | > 100 | > 100 | > 100 | > 100 | > 100 | > 100 | > 100 | > 100 | > 100 | > 100 | > 100 | > 100
10 | COc1ccc(C(SCCO)(c2ccccc2)c2ccc(OC)cc2)cc1 | 24.8 | 29.1 | 31.4 | 20.3 | 40.6 | 43 | 30.6 | 38.1 | 35.6 | 15.2 | 22.8 | 31.2 | 25.4 | 21.5 | 49.1 | 69.1 | 36.2 | 34.1 | 33.5 | 29.7
11 | COc1ccccc1CC(=O)C(O)(C(F)(F)F)C(F)(F)F | > 100 | > 100 | > 100 | > 100 | > 100 | > 100 | > 100 | > 100 | > 100 | > 100 | > 100 | > 100 | > 100 | > 100 | > 100 | > 100 | > 100 | > 100 | > 100 | > 100
12 | CCOC(=O)CCC(NC(=O)C(N)Cc1ccc(N(CCCl)CCCl)cc1)C(=O)OCC (stereo not given) | 1.4 | 3.47 | 0.747 | 4.98 | 3.08 | 2.4 | 2.34 | 1.68 | 5.3 | 2.23 | 15.5 | 3.38 | 3.94 | 3.43 | 1.38 | 17.7 | 1.85 | 2.18 | 4.41 | 6.53
13 | COc1ccc(C2c3cc4c(cc3OC3(OC)COC(=O)C23)OCO4)c(OC)c1 (stereo not given) | > 85.9 | 15.1 | > 100 | 5.24 | > 100 | > 100 | > 100 | > 100 | > 100 | > 100 | > 100 | 21.5 | 99.5 | 40 | > 100 | > 45.5 | 51.7 | > 100 | > 95.6 | > 73.1
14 | CC(N)/C(N)=N/O (stereo not given) | > 100 | > 100 | > 100 | > 100 | > 100 | > 100 | > 100 | > 100 | > 100 | > 100 | > 100 | > 100 | > 100 | > 100 | > 100 | > 100 | > 100 | > 100 | > 100 | > 100
